Data published in the supplement of paper PMC10307832.

Tests used:
Assay in all cases: relative viability (nuclei count vs DMSO), 5 days (fraction); higher = more cells survive
Pictilisib + Phenformin = compound: CS(=O)(=O)N1CCN(Cc2cc3nc(-c4cccc5[nH]ncc45)nc(N4CCOCC4)c3s2)CC1 [Pictilisib] + N=C(N)NC(=N)NCCc1ccccc1 [Phenformin] (partner 250 µM)
How it was run: (§1)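 Dosing by pin tool came one day after lung cancer cell lines were seeded in 1536-well plates, using either one drug or a fixed anchor-drug dose plus five library-drug doses (not always all listed) in √10 steps. After 5 days, nuclei were counted on 4× images. Relative viability is treated-well nuclei count divided by vehicle-well nuclei count, and values are medians of duplicate plates.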

MK-2206 + Vorinostat = compound: NC1(c2ccc(-c3nc4ccn5c(=O)[nH]nc5c4cc3-c3ccccc3)cc2)CCC1 [MK-2206] + O=C(CCCCCCC(=O)Nc1ccccc1)NO [Vorinostat] (partner 1 µM)
How it was run: as §1

MK-2206 = compound: NC1(c2ccc(-c3nc4ccn5c(=O)[nH]nc5c4cc3-c3ccccc3)cc2)CCC1 [MK-2206]
How it was run: (§2)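 Hoechst staining, done together with fixation and permeabilisation, marked nuclei for 4× imaging and MetaXpress counting. This followed 5 days without medium change after lung cancer cell lines, kept overnight at 37 °C in 1536-well plates, were pinned with five library-drug doses (not always all listed) spaced by √10 on vehicle-anchored plates. Viability is the ratio of treated-well to vehicle-well nuclei, expressed as a median across plates. Plates passed only at control CV below 25% with at least one doubling.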

Pictilisib = compound: CS(=O)(=O)N1CCN(Cc2cc3nc(-c4cccc5[nH]ncc45)nc(N4CCOCC4)c3s2)CC1 [Pictilisib]
How it was run: as §2

Cell Line	relative viability (Pictilisib + Phenformin; first compound 0.02 µM)	relative viability (Pictilisib + Phenformin; first compound 0.06325 µM)	relative viability (Pictilisib + Phenformin; first compound 0.6325 µM)	relative viability (Pictilisib + Phenformin; first compound 2 µM)	relative viability (MK-2206 + Vorinostat; first compound 0.01 µM)	relative viability (MK-2206 + Vorinostat; first compound 0.03162 µM)	relative viability (MK-2206 + Vorinostat; first compound 0.3162 µM)	relative viability (MK-2206 + Vorinostat; first compound 1 µM)	relative viability (MK-2206; 0.01 µM)	relative viability (MK-2206; 0.03162 µM)	relative viability (MK-2206; 0.3162 µM)	relative viability (MK-2206; 1 µM)	relative viability (Pictilisib; 0.02 µM)	relative viability (Pictilisib; 0.06325 µM)	relative viability (Pictilisib; 0.6325 µM)	relative viability (Pictilisib; 1 µM, anchor plate)	relative viability (Pictilisib; 2 µM)
NCI-H322M	0.861	0.773	0.566	0.418	0.844	0.936	0.944	0.977	0.914	1.06	0.981	1.05	0.988	0.973	0.714	0.531	0.453
NCI-H2405	0.4	0.386	0.364	0.23	1.04	1.09	1.07	0.894	1.02	1.03	0.968	0.839	1.07	0.977	0.851	0.433	0.451
NCI-H1666	0.576	0.615	0.522	0.462	1.03	1.07	1.04	0.916	0.973	0.9	1.04	0.846	1.06	1.11	0.961	0.47	0.679
NCI-H358	0.348	0.38	0.207	0.151	0.659	0.697	0.646	0.729	1.01	0.977	0.972	0.871	0.983	0.884	0.786	0.356	0.355
H3255	0.399	0.344	0.334	0.318	0.779	0.803	0.724	0.617	0.941	1.01	0.836	0.826	1.01	0.962	0.862	0.46	0.531
LCLC-103H	0.378	0.312	0.294	0.214	0.764	0.827	0.701	0.743	0.923	0.984	0.982	1.11	1.05	0.984	0.707	0.625	0.663
NCI-H2347	0.451	0.461	0.325	0.207	0.641	0.581	0.645	0.555	0.952	0.997	0.997	0.945	1.02	1.05	0.934	0.644	0.708
LK-2	0.468	0.379	0.176	0.143	0.26	0.287	0.334	0.221	0.944	1.09	1.05	0.911	0.938	0.926	0.656	0.598	0.415
NCI-H2342	0.581	0.586	0.472	0.355	0.841	0.802	0.821	0.733	1.05	0.959	0.892	0.815	0.949	0.931	0.838	–	0.531
HCC-15	0.506	0.504	0.346	0.261	0.821	0.828	0.78	0.854	0.996	1.06	0.866	0.923	1.1	1.02	0.866	0.737	0.666
SW 1573	0.387	0.318	0.215	0.166	0.665	0.94	0.449	0.6	0.997	1.03	0.773	0.782	0.966	0.958	0.768	0.487	0.403
NCI-H838	0.541	0.628	0.329	0.224	0.705	0.714	0.647	0.654	0.98	1.01	0.918	0.92	1.01	0.902	0.722	0.455	0.426
RERF-LC-KJ	0.409	0.35	0.343	0.307	0.651	0.741	0.603	0.62	0.943	0.997	0.854	0.919	0.974	0.944	0.807	0.565	0.575
ChaGo-K-1	0.438	0.529	0.42	0.33	0.754	0.856	0.763	0.702	1.02	1.14	0.968	0.866	1.04	1.02	0.893	0.783	0.815
NCI-H441	0.822	0.789	0.601	0.337	0.76	0.707	0.701	0.565	1.09	1.05	0.845	0.921	1.01	1.06	0.595	0.514	0.48
NCI-H2170	0.394	0.444	0.424	0.365	0.829	0.847	0.769	0.699	0.93	1.03	0.923	0.877	1	1.02	0.86	0.329	0.556
PC-14	0.858	0.719	0.621	0.386	0.73	0.79	0.55	0.669	0.937	1.02	0.991	1	1.1	1.14	0.994	0.672	0.703
NCI-H2009	0.501	0.504	0.438	0.365	0.759	0.739	0.708	0.766	0.97	1.04	1.02	0.993	1.03	1.04	0.967	0.783	0.679
NCI-H1395	0.453	0.425	0.386	0.399	0.713	0.667	0.574	0.576	1	0.91	0.701	0.793	1.12	1.01	0.715	0.649	0.54

Cell Line	relative viability (Pictilisib + Phenformin; first compound 0.02 µM)	relative viability (Pictilisib + Phenformin; first compound 0.06325 µM)	relative viability (Pictilisib + Phenformin; first compound 0.6325 µM)	relative viability (Pictilisib + Phenformin; first compound 2 µM)	relative viability (MK-2206 + Vorinostat; first compound 0.01 µM)	relative viability (MK-2206 + Vorinostat; first compound 0.03162 µM)	relative viability (MK-2206 + Vorinostat; first compound 0.3162 µM)	relative viability (MK-2206 + Vorinostat; first compound 1 µM)	relative viability (MK-2206; 0.01 µM)	relative viability (MK-2206; 0.03162 µM)	relative viability (MK-2206; 0.3162 µM)	relative viability (MK-2206; 1 µM)	relative viability (Pictilisib; 0.02 µM)	relative viability (Pictilisib; 0.06325 µM)	relative viability (Pictilisib; 0.6325 µM)	relative viability (Pictilisib; 1 µM, anchor plate)	relative viability (Pictilisib; 2 µM)
NCI-H1437	0.315	0.321	0.256	0.297	0.879	0.846	0.964	0.821	0.993	0.963	1.07	0.925	1.03	1.06	0.902	0.482	0.528
NCI-H647	0.667	0.698	0.291	0.227	0.569	0.429	0.567	0.654	0.951	1.11	0.921	0.744	1.09	1.03	0.78	0.476	0.471
NCI-H1793	0.387	0.38	0.221	0.203	0.818	0.773	0.636	0.478	0.979	1.04	0.887	0.743	0.864	0.956	0.539	0.343	0.359
SK-MES-1	0.692	0.686	0.621	0.558	1.02	1.15	1.02	1.05	0.959	1.02	0.954	0.887	1.04	1.01	0.778	0.392	0.365
NCI-H2087	0.483	0.439	0.468	0.28	0.469	1.1	0.791	0.862	0.938	1.25	0.881	0.746	1.07	1.09	0.968	0.913	0.689
BEN	0.315	0.286	0.286	0.248	0.54	0.582	0.514	0.555	0.97	1.08	1.07	0.836	1	1.01	0.951	0.57	0.75
NCI-H3122	0.402	0.4	0.394	0.284	0.924	0.969	0.944	0.871	1.02	1.03	1.05	0.984	1.01	1.04	0.954	0.644	0.511
LCLC-97TM1	0.435	0.415	0.398	0.194	0.578	0.779	0.625	0.734	0.941	1.05	0.968	0.829	0.928	0.932	0.791	0.199	0.217
NCI-H2228	0.335	0.38	0.18	0.141	0.741	0.857	0.588	0.386	0.871	0.845	0.658	0.517	0.962	0.998	0.742	0.413	0.361
COR-L23	0.428	0.471	0.522	0.424	0.462	0.52	0.426	0.408	1.01	1.05	1.03	0.99	1.14	1.1	1.03	0.807	0.763
EMC-BAC-2	0.604	0.515	0.432	0.335	0.468	0.442	0.442	0.392	0.95	0.959	0.926	0.871	1.21	1.04	0.727	0.555	0.565
NCI-H1944	0.206	0.184	0.137	0.141	0.536	0.547	0.556	0.433	1.03	1.01	0.965	0.987	1.15	0.879	0.595	0.354	0.32
A-427	0.345	0.357	0.27	0.212	0.871	0.877	0.916	0.869	1.04	1.06	0.981	0.974	1.1	1.07	0.921	0.698	0.74
NCI-H520	0.613	0.516	0.19	0.2	0.677	0.677	0.337	0.31	0.992	0.871	0.553	0.331	0.998	0.886	0.361	0.298	0.203
NCI-H650	0.468	0.457	0.357	0.394	0.455	0.414	0.345	0.428	0.986	0.854	0.97	0.764	1.03	0.958	0.848	0.865	0.687
COR-L 105	0.584	0.508	0.362	0.272	0.822	0.676	0.769	0.796	0.854	0.958	0.934	0.801	1.1	0.974	0.871	0.391	0.555
NCI-H1755	0.654	0.594	0.401	0.357	0.774	0.698	0.582	0.636	0.955	0.989	0.907	0.918	1.01	0.979	0.925	0.434	0.639
NCI-H2085	0.725	0.688	0.387	0.291	0.693	0.754	0.751	0.653	0.965	1.01	0.957	0.969	0.956	0.99	0.836	0.471	0.442
